Experimental data from publication PMC6540285, “Evaluation of Protein Kinase Inhibitors with PLK4 Cross-Over Potential in a Pre-Clinical Model of Cancer” (International Journal of Molecular Sciences, 2019).

Columns and labels:
ACVRL1 (ALK1) = ACVRL1 (ALK1) (Homo sapiens, UniProt P37023); test: SelectScreen kinase profiling, LanthaScreen binding
AURKA (Aurora A) = AURKA (Aurora A) (Homo sapiens, UniProt O14965); test: SelectScreen kinase profiling, ZLYTE; assay type: biochemical
CAMK2B (CaMKII beta) = CAMK2B (CaMKII beta) (Homo sapiens, UniProt Q13554); test: SelectScreen kinase profiling, ZLYTE; assay type: biochemical
CHEK2 (CHK2) = CHEK2 (CHK2) (Homo sapiens, UniProt O96017); test: SelectScreen kinase profiling, ZLYTE; assay type: biochemical
BTK = BTK (Homo sapiens, UniProt Q06187); test: SelectScreen kinase profiling, ZLYTE; assay type: biochemical
Description: (§1) Kinase Technology % Inhibition Avg Kinase Technology % Inhibition Avg
(§2) STK23 (MSSK1) ZLYTE 59 TGFBR1 (ALK5) LanthaScreen 85
(§3) STK24 (MST3) ZLYTE 85 TGFBR2 LanthaScreen 77
(§4) STK25 (YSK1) ZLYTE 45 TLK1 LanthaScreen 4
(§5) STK3 (MST2) ZLYTE 77 TLK2 LanthaScreen 33
(§6) STK32B (YANK2) LanthaScreen 61 TNIK LanthaScreen 15
(§7) STK32C (YANK3) LanthaScreen 62 TNK1 ZLYTE 94
(§8) STK33 LanthaScreen 81 TNK2 (ACK) LanthaScreen 71
(§9) STK38 (NDR) LanthaScreen 85 TTK LanthaScreen 54
(§10) STK38L (NDR2) LanthaScreen 59 TXK ZLYTE 94
(§11) STK39 (STLK3) LanthaScreen 38 TYK2 ZLYTE 99
(§12) STK4 (MST1) ZLYTE 93 TYRO3 (RSE) ZLYTE 92
(§13) SYK ZLYTE 98 ULK1 LanthaScreen 80
(§14) TAOK1 LanthaScreen 82 ULK2 LanthaScreen 56
(§15) TAOK2 (TAO1) ZLYTE 87 ULK3 LanthaScreen 5
(§16) TAOK3 (JIK) LanthaScreen 25 VRK2 LanthaScreen 32
(§17) TBK1 ZLYTE 99 WEE1 LanthaScreen 75
(§18) TEC LanthaScreen -9 WNK1 LanthaScreen 2
(§19) TEK (Tie2) ZLYTE 99 WNK2 LanthaScreen 1
(§20) TEK (TIE2) R849W LanthaScreen -5 WNK3 LanthaScreen 7
(§21) TEK (TIE2) Y897S ZLYTE 80 ZAK LanthaScreen 77
(§22) TESK1 LanthaScreen 37 ZAP70 ZLYTE 24
(§23) cleavage (Thermo Fisher Scientific, USA)

CSNK1E (CK1 epsilon) = CSNK1E (CK1 epsilon) (Homo sapiens, UniProt P49674); test: SelectScreen kinase profiling, ZLYTE; assay type: biochemical
Description: as §1, §2, §3, §4, §5, §6, §7, §8, §9, §10, §11, §12, §13, §14, §15, §16, §17, §18, §19, §20, §21, §22, §23

DYRK4 = DYRK4 (Homo sapiens, UniProt Q9NR20); test: SelectScreen kinase profiling, ZLYTE; assay type: biochemical; details: DYRK4, 10 µM
Description: as §1, §2, §3, §4, §5, §6, §7, §8, §9, §10, §11, §12, §13, §14, §15, §16, §17, §18, §19, §20, §21, §22, §23

GRK5 = GRK5 (Homo sapiens, UniProt P34947); test: SelectScreen kinase profiling, ZLYTE; assay type: biochemical; details: GRK5, 10 µM
Description: as §1, §2, §3, §4, §5, §6, §7, §8, §9, §10, §11, §12, §13, §14, §15, §16, §17, §18, §19, §20, §21, §22, §23

INSR = INSR (Homo sapiens, UniProt P06213); test: SelectScreen kinase profiling, ZLYTE; assay type: biochemical
Description: as §1, §2, §3, §4, §5, §6, §7, §8, §9, §10, §11, §12, §13, §14, §15, §16, §17, §18, §19, §20, §21, §22, §23

INSRR (IRR) = INSRR (IRR) (Homo sapiens, UniProt P14616); test: SelectScreen kinase profiling, ZLYTE; assay type: biochemical
Description: as §1, §2, §3, §4, §5, §6, §7, §8, §9, §10, §11, §12, §13, §14, §15, §16, §17, §18, §19, §20, §21, §22, §23

KSR2 = KSR2 (Homo sapiens, UniProt Q6VAB6); test: SelectScreen kinase profiling, ZLYTE; assay type: biochemical; details: KSR2, 10 µM
Description: as §1, §2, §3, §4, §5, §6, §7, §8, §9, §10, §11, §12, §13, §14, §15, §16, §17, §18, §19, §20, §21, §22, §23

MAPKAPK3 = MAPKAPK3 (Homo sapiens, UniProt Q16644); test: SelectScreen kinase profiling, ZLYTE; assay type: biochemical; details: MAPKAPK3, 10 µM
Description: as §1, §2, §3, §4, §5, §6, §7, §8, §9, §10, §11, §12, §13, §14, §15, §16, §17, §18, §19, §20, §21, §22, §23

MST1R (RON) = MST1R (RON) (Homo sapiens, UniProt Q04912); test: SelectScreen kinase profiling, ZLYTE; assay type: biochemical
Description: as §1, §2, §3, §4, §5, §6, §7, §8, §9, §10, §11, §12, §13, §14, §15, §16, §17, §18, §19, §20, §21, §22, §23

NEK6 = NEK6 (Homo sapiens, UniProt Q9HC98); test: SelectScreen kinase profiling, ZLYTE; assay type: biochemical; details: NEK6, 10 µM
Description: as §1, §2, §3, §4, §5, §6, §7, §8, §9, §10, §11, §12, §13, §14, §15, §16, §17, §18, §19, §20, §21, §22, §23

PAK7 (KIAA1264) = PAK7 (KIAA1264) (Homo sapiens, UniProt Q9P286); test: SelectScreen kinase profiling, ZLYTE; assay type: biochemical
Description: as §1, §2, §3, §4, §5, §6, §7, §8, §9, §10, §11, §12, §13, §14, §15, §16, §17, §18, §19, §20, §21, §22, §23

PDGFRA T674I = PDGFRA T674I (Homo sapiens, UniProt P16234, T674I); test: SelectScreen kinase profiling, ZLYTE; assay type: biochemical
Description: as §1, §2, §3, §4, §5, §6, §7, §8, §9, §10, §11, §12, §13, §14, §15, §16, §17, §18, §19, §20, §21, §22, §23

PKN1 (PRK1) = PKN1 (PRK1) (Homo sapiens, UniProt Q16512); test: SelectScreen kinase profiling, ZLYTE; assay type: biochemical
Description: as §1, §2, §3, §4, §5, §6, §7, §8, §9, §10, §11, §12, §13, §14, §15, §16, §17, §18, §19, §20, §21, §22, §23

PLK2 = PLK2 (Homo sapiens, UniProt Q9NYY3); test: SelectScreen kinase profiling, ZLYTE; assay type: biochemical; details: PLK2, 10 µM
Description: as §1, §2, §3, §4, §5, §6, §7, §8, §9, §10, §11, §12, §13, §14, §15, §16, §17, §18, §19, §20, §21, §22, §23

PTK2 (FAK) = PTK2 (FAK) (Homo sapiens, UniProt Q05397); test: SelectScreen kinase profiling, ZLYTE; assay type: biochemical
Description: as §1, §2, §3, §4, §5, §6, §7, §8, §9, §10, §11, §12, §13, §14, §15, §16, §17, §18, §19, §20, §21, §22, §23

PTK6 (Brk) = PTK6 (Brk) (Homo sapiens, UniProt Q13882); test: SelectScreen kinase profiling, ZLYTE; assay type: biochemical
Description: as §1, §2, §3, §4, §5, §6, §7, §8, §9, §10, §11, §12, §13, §14, §15, §16, §17, §18, §19, §20, §21, §22, §23

RAF1 (cRAF) Y340D Y341D = RAF1 (cRAF) Y340D Y341D (Homo sapiens, UniProt P04049, Y340D/Y341D); test: SelectScreen kinase profiling, ZLYTE; assay type: biochemical
Description: as §1, §2, §3, §4, §5, §6, §7, §8, §9, §10, §11, §12, §13, §14, §15, §16, §17, §18, §19, §20, §21, §22, §23

RPS6KA3 (RSK2) = RPS6KA3 (RSK2) (Homo sapiens, UniProt P51812); test: SelectScreen kinase profiling, ZLYTE; assay type: biochemical
Description: as §1, §2, §3, §4, §5, §6, §7, §8, §9, §10, §11, §12, §13, §14, §15, §16, §17, §18, §19, §20, §21, §22, §23

SRPK1 = SRPK1 (Homo sapiens, UniProt Q96SB4); test: SelectScreen kinase profiling, ZLYTE; assay type: biochemical; details: SRPK1, 10 µM
Description: as §1, §2, §3, §4, §5, §6, §7, §8, §9, §10, §11, §12, §13, §14, §15, §16, §17, §18, §19, §20, §21, §22, §23

STK22D (TSSK1) = STK22D (TSSK1) (Homo sapiens, UniProt Q9BXA7); test: SelectScreen kinase profiling, ZLYTE; assay type: biochemical
Description: as §1, §2, §3, §4, §5, §6, §7, §8, §9, §10, §11, §12, §13, §14, §15, §16, §17, §18, §19, §20, §21, §22, §23

EPHA3 = EPHA3 (Homo sapiens, UniProt P29320); test: SelectScreen kinase profiling, LanthaScreen binding; details: EPHA3, 10 µM
FYN A = FYN A (Homo sapiens, UniProt P06241); test: as above
IKBKB (IKK beta) = IKBKB (IKK beta) (Homo sapiens, UniProt O14920); test: SelectScreen kinase profiling, ZLYTE; assay type: biochemical
MUSK = MUSK (Homo sapiens, UniProt O15146); test: SelectScreen kinase profiling, ZLYTE; assay type: biochemical
PIK3C2G (PI3K-C2 gamma) = PIK3C2G (PI3K-C2 gamma) (Homo sapiens, UniProt O75747); test: SelectScreen kinase profiling, Adapta; assay type: biochemical
RET Y791F = RET Y791F (Homo sapiens, UniProt P07949, Y791F); test: SelectScreen kinase profiling, ZLYTE; assay type: biochemical
CYP3A4 = CYP3A4 (Homo sapiens, UniProt P08684); test: SelectScreen P450 Vivid biochemical assay; details: 10000nM
CYP3A4, sequence (P08684 whole entry): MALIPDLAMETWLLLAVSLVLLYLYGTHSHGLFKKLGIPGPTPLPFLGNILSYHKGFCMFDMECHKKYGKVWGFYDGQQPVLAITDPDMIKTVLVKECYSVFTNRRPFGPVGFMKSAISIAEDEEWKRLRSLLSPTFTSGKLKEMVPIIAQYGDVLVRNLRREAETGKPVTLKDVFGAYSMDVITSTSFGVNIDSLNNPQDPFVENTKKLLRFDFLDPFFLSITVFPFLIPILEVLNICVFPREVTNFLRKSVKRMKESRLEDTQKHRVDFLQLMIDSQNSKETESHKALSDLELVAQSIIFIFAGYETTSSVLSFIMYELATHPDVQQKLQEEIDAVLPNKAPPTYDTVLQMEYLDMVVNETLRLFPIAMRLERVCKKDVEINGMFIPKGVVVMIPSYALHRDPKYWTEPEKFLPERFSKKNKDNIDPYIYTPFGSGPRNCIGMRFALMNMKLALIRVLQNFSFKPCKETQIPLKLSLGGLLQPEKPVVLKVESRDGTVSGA

AURKA (Aurora A), sequence (O14965 whole entry): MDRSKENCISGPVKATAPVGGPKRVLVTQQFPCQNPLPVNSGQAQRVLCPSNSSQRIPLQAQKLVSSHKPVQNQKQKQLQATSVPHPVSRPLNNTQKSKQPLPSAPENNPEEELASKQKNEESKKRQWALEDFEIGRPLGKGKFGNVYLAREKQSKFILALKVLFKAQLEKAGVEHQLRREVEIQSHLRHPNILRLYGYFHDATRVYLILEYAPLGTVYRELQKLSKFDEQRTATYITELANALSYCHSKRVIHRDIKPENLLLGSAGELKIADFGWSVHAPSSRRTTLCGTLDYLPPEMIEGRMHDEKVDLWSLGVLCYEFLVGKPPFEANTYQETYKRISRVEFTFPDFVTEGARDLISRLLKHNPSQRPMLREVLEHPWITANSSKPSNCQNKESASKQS
KSR2, sequence (Q6VAB6 whole entry): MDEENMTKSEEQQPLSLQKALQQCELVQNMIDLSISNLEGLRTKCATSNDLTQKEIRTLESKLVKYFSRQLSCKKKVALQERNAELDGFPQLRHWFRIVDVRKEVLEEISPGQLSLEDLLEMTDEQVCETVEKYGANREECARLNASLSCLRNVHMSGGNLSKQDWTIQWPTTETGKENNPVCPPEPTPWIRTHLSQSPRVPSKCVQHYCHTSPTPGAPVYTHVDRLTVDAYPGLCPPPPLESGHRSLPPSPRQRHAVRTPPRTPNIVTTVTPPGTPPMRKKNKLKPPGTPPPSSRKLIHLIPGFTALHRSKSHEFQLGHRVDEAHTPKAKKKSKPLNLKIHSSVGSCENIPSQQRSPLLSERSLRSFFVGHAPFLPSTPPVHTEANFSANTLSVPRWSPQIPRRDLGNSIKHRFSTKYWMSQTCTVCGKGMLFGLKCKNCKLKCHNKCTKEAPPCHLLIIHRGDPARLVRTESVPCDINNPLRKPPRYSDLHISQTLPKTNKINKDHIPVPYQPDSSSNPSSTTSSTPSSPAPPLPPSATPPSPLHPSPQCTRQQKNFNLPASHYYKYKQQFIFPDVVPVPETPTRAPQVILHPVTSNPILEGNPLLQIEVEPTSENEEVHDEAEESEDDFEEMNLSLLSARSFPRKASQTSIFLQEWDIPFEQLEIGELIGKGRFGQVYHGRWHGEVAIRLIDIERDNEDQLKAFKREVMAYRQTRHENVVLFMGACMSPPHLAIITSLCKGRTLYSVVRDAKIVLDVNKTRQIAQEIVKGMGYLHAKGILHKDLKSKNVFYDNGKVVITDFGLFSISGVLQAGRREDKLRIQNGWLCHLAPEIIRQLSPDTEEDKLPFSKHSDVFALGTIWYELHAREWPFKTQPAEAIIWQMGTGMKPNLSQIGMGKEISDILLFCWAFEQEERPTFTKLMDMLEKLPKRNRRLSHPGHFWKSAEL
EPHA3, sequence (P29320 21-983): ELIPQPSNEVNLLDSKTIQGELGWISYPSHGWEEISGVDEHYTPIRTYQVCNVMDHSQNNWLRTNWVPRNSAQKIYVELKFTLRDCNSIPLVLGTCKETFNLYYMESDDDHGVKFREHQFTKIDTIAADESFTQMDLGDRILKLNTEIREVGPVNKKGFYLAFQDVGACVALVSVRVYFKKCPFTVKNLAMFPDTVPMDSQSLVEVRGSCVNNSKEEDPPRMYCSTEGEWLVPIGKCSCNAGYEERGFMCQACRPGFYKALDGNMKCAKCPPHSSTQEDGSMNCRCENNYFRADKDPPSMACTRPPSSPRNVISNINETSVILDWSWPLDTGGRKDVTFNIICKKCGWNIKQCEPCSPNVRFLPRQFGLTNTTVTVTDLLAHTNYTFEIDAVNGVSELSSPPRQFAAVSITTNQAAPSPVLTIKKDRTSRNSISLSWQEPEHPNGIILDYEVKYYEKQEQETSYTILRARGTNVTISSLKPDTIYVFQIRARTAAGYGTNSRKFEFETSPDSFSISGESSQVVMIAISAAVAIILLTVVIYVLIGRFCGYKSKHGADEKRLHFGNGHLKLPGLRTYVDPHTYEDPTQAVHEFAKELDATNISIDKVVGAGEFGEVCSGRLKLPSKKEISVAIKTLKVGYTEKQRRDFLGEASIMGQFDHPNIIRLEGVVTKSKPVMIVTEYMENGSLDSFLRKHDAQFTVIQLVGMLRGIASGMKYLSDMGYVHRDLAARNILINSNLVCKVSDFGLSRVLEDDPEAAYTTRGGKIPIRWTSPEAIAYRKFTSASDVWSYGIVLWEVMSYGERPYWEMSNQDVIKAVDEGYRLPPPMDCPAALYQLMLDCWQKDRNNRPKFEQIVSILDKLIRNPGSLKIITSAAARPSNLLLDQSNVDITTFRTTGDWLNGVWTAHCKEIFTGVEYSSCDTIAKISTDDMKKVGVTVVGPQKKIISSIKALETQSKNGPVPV
INSRR (IRR), sequence (P14616 27-1297): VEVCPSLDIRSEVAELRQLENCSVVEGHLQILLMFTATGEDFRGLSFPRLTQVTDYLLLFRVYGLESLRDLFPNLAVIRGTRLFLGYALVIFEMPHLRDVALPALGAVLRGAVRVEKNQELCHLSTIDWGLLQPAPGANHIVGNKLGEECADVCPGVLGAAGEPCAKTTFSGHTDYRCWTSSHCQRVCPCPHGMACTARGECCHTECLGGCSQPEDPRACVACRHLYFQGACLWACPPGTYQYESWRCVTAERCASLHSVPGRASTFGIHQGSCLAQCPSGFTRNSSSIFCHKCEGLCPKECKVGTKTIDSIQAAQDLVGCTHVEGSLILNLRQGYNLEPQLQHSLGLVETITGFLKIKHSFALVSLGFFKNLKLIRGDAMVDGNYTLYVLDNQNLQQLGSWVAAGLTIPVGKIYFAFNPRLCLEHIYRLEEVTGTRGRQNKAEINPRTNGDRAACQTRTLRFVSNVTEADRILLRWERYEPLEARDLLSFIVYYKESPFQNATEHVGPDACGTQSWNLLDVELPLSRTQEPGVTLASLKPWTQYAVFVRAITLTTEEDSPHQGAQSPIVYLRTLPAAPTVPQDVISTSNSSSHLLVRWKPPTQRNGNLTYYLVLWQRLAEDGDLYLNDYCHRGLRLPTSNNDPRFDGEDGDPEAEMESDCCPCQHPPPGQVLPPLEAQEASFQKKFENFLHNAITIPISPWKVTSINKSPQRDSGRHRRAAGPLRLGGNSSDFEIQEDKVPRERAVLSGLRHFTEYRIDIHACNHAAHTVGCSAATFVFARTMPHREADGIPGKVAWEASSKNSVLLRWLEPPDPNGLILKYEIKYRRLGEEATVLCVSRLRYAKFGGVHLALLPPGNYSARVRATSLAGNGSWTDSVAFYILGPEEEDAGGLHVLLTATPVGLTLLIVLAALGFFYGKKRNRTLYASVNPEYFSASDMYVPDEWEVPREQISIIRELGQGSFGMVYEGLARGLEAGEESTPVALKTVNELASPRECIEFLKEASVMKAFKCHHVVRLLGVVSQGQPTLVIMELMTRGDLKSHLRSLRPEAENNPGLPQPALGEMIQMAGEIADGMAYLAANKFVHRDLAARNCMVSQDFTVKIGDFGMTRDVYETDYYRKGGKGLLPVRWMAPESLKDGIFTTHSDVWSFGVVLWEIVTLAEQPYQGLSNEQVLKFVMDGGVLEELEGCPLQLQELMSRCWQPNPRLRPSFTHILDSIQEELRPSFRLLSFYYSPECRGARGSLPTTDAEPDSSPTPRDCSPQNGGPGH
CAMK2B (CaMKII beta), sequence (Q13554 whole entry): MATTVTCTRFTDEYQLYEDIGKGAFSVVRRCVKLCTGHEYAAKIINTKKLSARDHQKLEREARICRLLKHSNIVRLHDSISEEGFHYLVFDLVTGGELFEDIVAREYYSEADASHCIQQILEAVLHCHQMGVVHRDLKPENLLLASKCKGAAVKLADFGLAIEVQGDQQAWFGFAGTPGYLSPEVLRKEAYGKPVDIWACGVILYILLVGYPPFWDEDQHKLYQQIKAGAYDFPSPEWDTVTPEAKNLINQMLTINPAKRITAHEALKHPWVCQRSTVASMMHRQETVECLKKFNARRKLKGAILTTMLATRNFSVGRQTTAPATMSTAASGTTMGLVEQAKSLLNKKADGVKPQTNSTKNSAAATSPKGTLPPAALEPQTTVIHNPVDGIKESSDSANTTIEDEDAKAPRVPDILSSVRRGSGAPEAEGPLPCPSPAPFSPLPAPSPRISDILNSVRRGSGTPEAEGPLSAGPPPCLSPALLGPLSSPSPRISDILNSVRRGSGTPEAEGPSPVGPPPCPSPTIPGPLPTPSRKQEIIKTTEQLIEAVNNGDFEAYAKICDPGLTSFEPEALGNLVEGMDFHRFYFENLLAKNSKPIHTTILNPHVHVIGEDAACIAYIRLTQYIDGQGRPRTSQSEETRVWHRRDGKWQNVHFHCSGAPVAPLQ
NEK6, sequence (Q9HC98 whole entry): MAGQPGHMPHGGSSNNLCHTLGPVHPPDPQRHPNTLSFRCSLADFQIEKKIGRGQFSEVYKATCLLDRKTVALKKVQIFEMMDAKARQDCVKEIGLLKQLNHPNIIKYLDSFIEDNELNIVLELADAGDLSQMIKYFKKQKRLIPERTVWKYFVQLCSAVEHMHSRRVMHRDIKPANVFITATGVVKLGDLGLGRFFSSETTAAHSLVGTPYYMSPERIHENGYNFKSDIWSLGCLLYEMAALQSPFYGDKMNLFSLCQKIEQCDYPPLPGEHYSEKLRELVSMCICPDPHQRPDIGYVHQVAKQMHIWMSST

O=C(c1ccc(/C=C/c2n[nH]c3ccccc23)cc1)N1CCNCC1 [KW-2449]
inhibition at 10 µM (ACVRL1 (ALK1)): 86%
inhibition at 10 µM (AURKA (Aurora A)): 98%
inhibition at 10 µM (CAMK2B (CaMKII beta)): 32%
inhibition at 10 µM (CHEK2 (CHK2)): 100%
inhibition at 10 µM (BTK): 99%
inhibition at 10 µM (CSNK1E (CK1 epsilon)): 67%
inhibition at 10 µM (DYRK4): 16%
inhibition at 10 µM (GRK5): 17%
inhibition at 10 µM (INSR): 96%
inhibition at 10 µM (INSRR (IRR)): 96%
inhibition at 10 µM (KSR2): 5%
inhibition at 10 µM (MAPKAPK3): 4%
inhibition at 10 µM (MST1R (RON)): 97%
inhibition at 10 µM (NEK6): 10%
inhibition at 10 µM (PAK7 (KIAA1264)): 98%
inhibition at 10 µM (PDGFRA T674I): 97%
inhibition at 10 µM (PKN1 (PRK1)): 72%
inhibition at 10 µM (PLK2): 35%
inhibition at 10 µM (PTK2 (FAK)): 95%
inhibition at 10 µM (PTK6 (Brk)): 71%
inhibition at 10 µM (RAF1 (cRAF) Y340D Y341D): 74%
inhibition at 10 µM (RPS6KA3 (RSK2)): 95%
inhibition at 10 µM (SRPK1): 31%
inhibition at 10 µM (STK22D (TSSK1)): 99%
inhibition at 10 µM (EPHA3): 61%
inhibition at 10 µM (FYN A): 72%
inhibition at 10 µM (IKBKB (IKK beta)): 66%
inhibition at 10 µM (MUSK): 90%
inhibition at 10 µM (PIK3C2G (PI3K-C2 gamma)): 2%
inhibition at 10 µM (RET Y791F): 100%
% Inhibition 3A4 BOMCC (CYP3A4; substrate BOMCC): 63%
% Inhibition 3A4 DBOMF (CYP3A4; substrate DBOMF): 46%
